Data from patent US20260167621A1, “Three Cluster Galactose Type Compound, Conjugate, Making Method and Use Thereof” (GUANGZHOU RIBOBIO CO., LTD., priority 2023, published 2026).

Legend:
[1] = test system: PCSK9 mRNA; assay: Knock down effect on the expression of PCSK9 mRNA in Hep3B cell; format: cell-based, human; details: Lipofectamine 3000 transfection, qPCR, actin as reference gene
Description: Referring to Chinese Patent Application No. CN109957567B, the synthesized siRNA sequences were shown below:
The compound G2, G4, G5 obtained from the examples 2, 4, 5, bound to the above mentioned siRNA respectively to form conjugates which were shown in Table 4.
Hep3B cell (ATCC, HB-8064) was cultured, the cell density was about 30% to 50% before transfection and relatively uniformly.
Each conjugate samples of Table 4 were prepared to 20 μM storage solution, and were set as experimental groups. Except the experimental groups, normal cell control group (Blank), transfection reagent control group (Mock), negative control group 1 (NC001, Ribobio, siM21 1215011852) and negative control group 2 (NC002, Ribobio, siM21 1215011852) were also set. Referring to the specification of Lipofectamine™ 3000 transfection reagent (Thermo Fisher, L300001), cells were transfected. Both the experimental groups and the control groups had 3 replicates.
The total RNA extraction was performed with reference to the specification of MagZol Reagent (Magen, R4801).
The reverse transcription was performed with reference to the specification of riboSCRIPT™ Reverse Transcription Kit (Ribobio, C11027-2).
Human house keeping gene actin was used for reference gene, forward primer sequence of actin gene: 5′-[…]-3′ (SEQ ID NO: 5), reverse primer sequence: 5′-[…]-3′ (SEQ ID NO: 6); forward primer sequence of human PCSK9 gene: 5′-[…]-3′ (SEQ ID NO: 7), reverse primer sequence: 5′-[…]-3′ (SEQ ID NO: 8). 2×SYBR Green Mix (Ribobio, C10712F −1 m l) and fluorescence quantitative PCR instrument (BioRad, CFX96) were used to perform real time fluorescence quantitative PCR reaction. After PCR reaction, the Ct deviation of 9 replicates of a sample (3 transfection replicates×3 qPCR duplicates) should be ±0.5. Then CFX 2.1 software was used for quantitative analysis.

[2] = target: T1, Hepatocyte ASGPR receptor (Homo sapiens, UniProt P07306); assay: Binding affinity test with hepatocyte ASGPR receptor (Cy5 flow cytometry, binding saturation curve); details: for Bmax: average Cy5 fluorescence intensity of live cells minus blank, one site binding (hyperbola) fit; for Bmax / Kd: 0.9-100 nM, 2 hours on ice; for Kd: one site binding (hyperbola) fit of Cy5 fluorescence, read-out: Kd (dissociation equilibrium constant); for binding affinity with ASGPR receptor: statement in words from Table 3
T1 construct: endogenous in cells
T1 sequence (P07306 1-291): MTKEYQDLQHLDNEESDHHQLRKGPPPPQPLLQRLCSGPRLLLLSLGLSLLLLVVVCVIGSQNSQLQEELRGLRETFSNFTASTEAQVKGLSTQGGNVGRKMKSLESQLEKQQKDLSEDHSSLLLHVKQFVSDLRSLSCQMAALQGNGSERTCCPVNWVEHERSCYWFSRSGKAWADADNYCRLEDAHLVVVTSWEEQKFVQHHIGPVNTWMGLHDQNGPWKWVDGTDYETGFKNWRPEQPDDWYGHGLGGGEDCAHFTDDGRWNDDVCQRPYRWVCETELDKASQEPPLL
T1 sequence (P07307 1-311 partner): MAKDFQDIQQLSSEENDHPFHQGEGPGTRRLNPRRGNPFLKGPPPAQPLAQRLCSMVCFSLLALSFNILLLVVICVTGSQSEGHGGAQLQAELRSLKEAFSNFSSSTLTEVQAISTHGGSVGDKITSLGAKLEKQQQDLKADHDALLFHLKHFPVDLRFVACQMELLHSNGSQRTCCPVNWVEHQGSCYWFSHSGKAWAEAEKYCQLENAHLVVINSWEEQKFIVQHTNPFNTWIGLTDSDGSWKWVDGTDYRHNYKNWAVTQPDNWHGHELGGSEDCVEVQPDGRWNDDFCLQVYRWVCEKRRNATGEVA
Description: Embodiment 1: Binding Affinity Test with Hepatocyte ASGPR Receptor
The compound G1, G4, G5 obtained from the examples 1, 4, 5, bound to the above mentioned siRNA respectively to form conjugates which were shown in Table 1.
G1-12, G4-12, G5-12 (1 uM) were diluted respectively in a gradient according to the following Table 2.
The cell concentration was diluted by DMEM culture medium with 2% FBS to 4*10^5 cells/mL.
200 μL cells of each sample and 200 μL siRNA were mixed uniformly, 200 μL cells of the blank control group and 200 μL culture medium were mixed uniformly, and were added in 3 wells of 96-well plate with U-shaped bottom, 100 μL each well. Samples of each concentration of all siRNA were placed in the ice box after sampling, and were placed in decolorization shaker and incubated in dark for 2 hours.
50 g of 96-well plate with U-shaped bottom was centrifuged for 2 minutes at 4° C. 80 μL supernatant was aspirated and discarded by pipette, 10 μg/mL propidium iodide was prepared by using of PBS with 2% FBS, 100 μL PI reagent was added in each well and was stained for 15 minutes. After staining, 50 g of 96-well plate with U-shaped bottom was centrifuged for 2 minutes at 4° C. After washed by PBS with 2% FBS for twice, 100 μL PBS with 2% FBS was added for resuspension, flow cytometer was used to test and count the average Cy5 fluorescence intensity of live cell population.

Row | Substance | PCSK9 mRNA relative expression value, the average relative expression [1] | Bmax [2] | Kd [2] | binding affinity with ASGPR receptor [2]
1 | G2-34: G2 bound to 5' end of SEQ ID NO: 3, paired with 5'-phos* SEQ ID NO: 4 (PCSK9 siRNA); structure Z2 (sense GGUCUGGAAUGCAAAGUCA; antisense UGACUUUGCAUUCCAGACC; G2 ligand 5'; 5'-phosphate; modified_base join(1,4,5,6,10,11,12,13,14,15,16) OTHER; 2'-O-methyl modification; modified_base join(2,3,17,18,19) OTHER; thiophosphorylated skeleton modification and 2'-O-methyl modification; modified_base join(7,8,9) OTHER; 2'-fluoro modification; modified_base join(1,5,7,9,11,13,15) OTHER; modified_base join(3,17,18,19) OTHER; modified_base 2 OTHER; thiophosphorylated skeleton modification and 2'-fluoro modification; modified_base join(4,6,8,10,12,14,16) OTHER) [Compound G2-34] | 0.34 |  |  | 
2 | G4-12: G4 bound to 5' end of SEQ ID NO: 1 via C6 amino modification, paired with 5'-Cy5 SEQ ID NO: 2; structure Z4 (sense GUAUGUUGCCCGUUUGUCC; antisense GGACAAACGGGCAACAUACCU; G4 ligand via C6 amino; Cy5 label; modified_base join(1,5,8,12,16) OTHER; deoxyribonucleotide modification; modified_base 3 OTHER; thiophosphorylated skeleton modification and deoxyribonucleotide modification; modified_base join(4,6,7,9,10,11,13,14,15,17) OTHER; 2'-fluoro modification; modified_base join(2,18,19) OTHER; thiophosphorylated skeleton modification and 2'-fluoro modification; modified_base join(1,5,7,9,11,13,15,17) OTHER; 2'-O-methyl modification; modified_base join(3,19,20,21) OTHER; thiophosphorylated skeleton modification and 2'-O-methyl modification; modified_base join(2,4) …) [Compound G4-12] |  | 239297 | 6.37 nM | reach a higher level
3 | G4-34: G4 bound to 5' end of SEQ ID NO: 3 via C6 amino modification, paired with 5'-phos* SEQ ID NO: 4; structure Z4 (sense GGUCUGGAAUGCAAAGUCA; antisense UGACUUUGCAUUCCAGACC; G4 ligand via C6 amino; 5'-phosphate; modified_base join(1,4,5,6,10,11,12,13,14,15,16) OTHER; 2'-O-methyl modification; modified_base join(2,3,17,18,19) OTHER; thiophosphorylated skeleton modification and 2'-O-methyl modification; modified_base join(7,8,9) OTHER; 2'-fluoro modification; modified_base join(1,5,7,9,11,13,15) OTHER; modified_base join(3,17,18,19) OTHER; modified_base 2 OTHER; thiophosphorylated skeleton modification and 2'-fluoro modification; modified_base join(4,6,8,10,12,14,16) OTHER) [Compound G4-34] | 0.41 |  |  | 
4 | G5-12: G5 bound to 5' end of SEQ ID NO: 1 via C6 amino modification, paired with 5'-Cy5 SEQ ID NO: 2; structure Z5 (sense GUAUGUUGCCCGUUUGUCC; antisense GGACAAACGGGCAACAUACCU; G5 ligand via C6 amino; Cy5 label; modified_base join(1,5,8,12,16) OTHER; deoxyribonucleotide modification; modified_base 3 OTHER; thiophosphorylated skeleton modification and deoxyribonucleotide modification; modified_base join(4,6,7,9,10,11,13,14,15,17) OTHER; 2'-fluoro modification; modified_base join(2,18,19) OTHER; thiophosphorylated skeleton modification and 2'-fluoro modification; modified_base join(1,5,7,9,11,13,15,17) OTHER; 2'-O-methyl modification; modified_base join(3,19,20,21) OTHER; thiophosphorylated skeleton modification and 2'-O-methyl modification; modified_base join(2,4) …) [Compound G5-12] |  | 199232 | 3.69 nM | reach a higher level
5 | G5-34: G5 bound to 5' end of SEQ ID NO: 3 via C6 amino modification, paired with 5'-phos* SEQ ID NO: 4; structure Z5 (sense GGUCUGGAAUGCAAAGUCA; antisense UGACUUUGCAUUCCAGACC; G5 ligand via C6 amino; 5'-phosphate; modified_base join(1,4,5,6,10,11,12,13,14,15,16) OTHER; 2'-O-methyl modification; modified_base join(2,3,17,18,19) OTHER; thiophosphorylated skeleton modification and 2'-O-methyl modification; modified_base join(7,8,9) OTHER; 2'-fluoro modification; modified_base join(1,5,7,9,11,13,15) OTHER; modified_base join(3,17,18,19) OTHER; modified_base 2 OTHER; thiophosphorylated skeleton modification and 2'-fluoro modification; modified_base join(4,6,8,10,12,14,16) OTHER) [Compound G5-34] | 0.33 |  |  | 
